Measurements taken from PubChem BioAssay (NCI).
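Where inhibition never reached the appropriate level, the endpoint shown equals the highest concentration tested. Otherwise, values were interpolated linearly from a five-concentration, 48-hour dose response in 96-well plates. GI50 = concentration required for 50% inhibition of growth. At the TGI there is no net growth.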

How the values were obtained:
Experiment in all cases: NCI tumour cell line growth inhibition, 48 h; in the data active = GI50 below about 0.43 µM; inactive = the rest
[1] = system: A498 renal
[2] = system: A549 NSCLC
[3] = system: ACHN renal
[4] = system: BT-549 breast
[5] = system: CAKI-1 renal
[6] = system: CCRF-CEM leukemia
[7] = system: COLO 205 colon
[8] = system: DU-145 prostate
[9] = system: EKVX NSCLC
[10] = system: HCC-2998 colon
[11] = system: HCT-116 colon
[12] = system: HCT-15 colon
[13] = system: HL-60(TB) leukemia
[14] = system: HOP-62 NSCLC
[15] = system: HOP-92 NSCLC
[16] = system: HS 578T breast
[17] = system: HT29 colon
[18] = system: IGROV1 ovarian
[19] = system: K-562 leukemia
[20] = system: KM12 colon
[21] = system: LOX IMVI melanoma
[22] = system: M14 melanoma
[23] = system: MALME-3M melanoma
[24] = system: MCF7 breast
[25] = system: MDA-MB-231 breast
[26] = system: MDA-MB-435
[27] = system: MOLT-4 leukemia
[28] = system: NCI-H226 lung
[29] = system: NCI-H23 lung
[30] = system: NCI-H460 lung
[31] = system: NCI-H522 lung
[32] = system: NCI/ADR-RES ovarian
[33] = system: OVCAR-3 ovarian
[34] = system: OVCAR-4 ovarian
[35] = system: OVCAR-5 ovarian
[36] = system: OVCAR-8 ovarian
[37] = system: RXF 393 renal
[38] = system: SF-268 CNS
[39] = system: SF-295 CNS
[40] = system: SF-539 CNS
[41] = system: SK-MEL-2 melanoma
[42] = system: SK-MEL-28 melanoma
[43] = system: SK-MEL-5 melanoma
[44] = system: SK-OV-3 ovarian
[45] = system: SN12C renal
[46] = system: SNB-19 CNS
[47] = system: SNB-75 CNS
[48] = system: SW-620 colon
[49] = system: T-47D breast
[50] = system: TK-10 renal
[51] = system: U251 CNS
[52] = system: UACC-257 melanoma
[53] = system: UO-31 renal
[54] = system: 786-0 renal
[55] = system: PC-3 prostate
[56] = system: RPMI-8226 leukemia
[57] = system: SR leukemia
[58] = system: UACC-62 melanoma

O=C(O)Cn1c2c(c3c(O)cccc31)C(=O)c1ccccc1-2
> 100 µM: TGI [1] | TGI [2] | TGI [3] | TGI [4] | TGI [5] | TGI [6] | TGI [7] | TGI [8] | TGI [9] | TGI [10] | TGI [11] | TGI [12] | TGI [13] | TGI [14] | TGI [15] | TGI [16] | TGI [17] | TGI [18] | TGI [19] | TGI [20] | TGI [21] | TGI [22] | TGI [23] | TGI [24] | TGI [25] | TGI [26] | TGI [27] | TGI [28] | TGI [29] | TGI [30] | TGI [31] | TGI [32] | TGI [33] | TGI [34] | TGI [35] | TGI [36] | TGI [37] | TGI [38] | TGI [39] | TGI [40] | TGI [41] | TGI [42] | TGI [43] | TGI [44] | TGI [45] | TGI [46] | TGI [47] | TGI [48] | TGI [49] | TGI [50] | TGI [51] | TGI [52] | TGI [53]
inactive: GI50 [1] > 100 µM | GI50 [2] > 100 µM | GI50 [3] > 100 µM | GI50 [4] 12.8 µM | GI50 [5] > 100 µM | GI50 [6] > 100 µM | GI50 [7] > 100 µM | GI50 [9] 3.2 µM | GI50 [10] > 100 µM | GI50 [11] 93.6 µM | GI50 [12] > 100 µM | GI50 [13] > 100 µM | GI50 [14] > 100 µM | GI50 [15] > 100 µM | GI50 [16] > 100 µM | GI50 [17] > 100 µM | GI50 [18] > 100 µM | GI50 [19] > 100 µM | GI50 [20] > 100 µM | GI50 [21] > 100 µM | GI50 [22] > 100 µM | GI50 [23] > 100 µM | GI50 [24] > 100 µM | GI50 [25] > 100 µM | GI50 [26] > 100 µM | GI50 [27] > 100 µM | GI50 [28] > 100 µM | GI50 [29] > 100 µM | GI50 [30] > 100 µM | GI50 [31] > 100 µM | GI50 [32] > 100 µM | GI50 [33] > 100 µM | GI50 [34] > 100 µM | GI50 [35] > 100 µM | GI50 [36] > 100 µM | GI50 [37] > 100 µM | GI50 [38] > 100 µM | GI50 [39] > 100 µM | GI50 [40] 5.62 µM | GI50 [41] > 100 µM | GI50 [42] > 100 µM | GI50 [43] > 100 µM | GI50 [44] > 100 µM | GI50 [45] > 100 µM | GI50 [46] > 100 µM | GI50 [47] > 100 µM | GI50 [48] > 100 µM | GI50 [49] > 100 µM | GI50 [50] > 100 µM | GI50 [51] > 100 µM | GI50 [52] > 100 µM | GI50 [53] > 100 µM
active: GI50 [8] 0.0519 µM

O=C(Nc1cccnc1)c1ccc2ccc3ccc(C(=O)Nc4cccnc4)nc3c2n1
> 100 µM: TGI [54] | TGI [2] | TGI [3] | TGI [5] | TGI [6] | TGI [7] | TGI [8] | TGI [9] | TGI [10] | TGI [12] | TGI [13] | TGI [14] | TGI [16] | TGI [17] | TGI [18] | TGI [19] | TGI [20] | TGI [21] | TGI [22] | TGI [23] | TGI [24] | TGI [25] | TGI [26] | TGI [27] | TGI [28] | TGI [29] | TGI [31] | TGI [32] | TGI [33] | TGI [34] | TGI [35] | TGI [36] | TGI [55] | TGI [56] | TGI [38] | TGI [39] | TGI [41] | TGI [42] | TGI [43] | TGI [45] | TGI [46] | TGI [47] | TGI [57] | TGI [48] | TGI [49] | TGI [50] | TGI [51] | TGI [58] | TGI [53]
active: GI50 [54] 0.206 µM | GI50 [1] 0.214 µM | GI50 [2] 0.135 µM | GI50 [3] 0.145 µM | GI50 [5] 0.135 µM | GI50 [6] 0.169 µM | GI50 [7] 0.135 µM | GI50 [8] 0.195 µM | GI50 [9] 0.294 µM | GI50 [10] 0.0648 µM | GI50 [12] 0.0518 µM | GI50 [13] 0.132 µM | GI50 [14] 0.13 µM | GI50 [17] 0.0458 µM | GI50 [18] 0.125 µM | GI50 [19] 0.0526 µM | GI50 [20] 0.0546 µM | GI50 [21] 0.18 µM | GI50 [22] 0.0799 µM | GI50 [24] 0.137 µM | GI50 [25] 0.226 µM | GI50 [26] 0.184 µM | GI50 [27] 0.419 µM | GI50 [28] 0.128 µM | GI50 [29] 0.202 µM | GI50 [30] 0.0537 µM | GI50 [33] 0.242 µM | GI50 [34] 0.37 µM | GI50 [36] 0.231 µM | GI50 [55] 0.158 µM | GI50 [56] 0.0876 µM | GI50 [37] 0.11 µM | GI50 [38] 0.225 µM | GI50 [39] 0.252 µM | GI50 [42] 0.324 µM | GI50 [43] 0.271 µM | GI50 [45] 0.3 µM | GI50 [46] 0.0845 µM | GI50 [47] 0.273 µM | GI50 [57] 0.155 µM | GI50 [48] 0.0781 µM | GI50 [49] 0.257 µM | GI50 [51] 0.0613 µM | GI50 [58] 0.205 µM
0.553 µM: TGI [1]
0.342 µM: TGI [37]
inactive: GI50 [16] 0.434 µM | GI50 [23] > 100 µM | GI50 [31] 0.525 µM | GI50 [32] > 100 µM | GI50 [41] 0.911 µM | GI50 [53] > 100 µM
